Laboratory results published in US12421253B2 (Mirati Therapeutics, Inc., priority 2020, dated 2025).

Legend:
KRas^G12S = target: T1, KRas^G12S (Homo sapiens, UniProt P01116, G12S); assay: KRas binding assay (TR-FRET displacement of Cy5 labelled tracer)
T1 construct: […]; biotin (biotinylated); purchased Accelegan Inc
Procedure: (§1) The ability of a compound to bind to KRas was measured using a TR-FRET displacement assay. […] After a 60-minute incubation at room temperature, the reaction was measured using a BMG LABTECH CLARIO star Plus via TR-FRET. […] The POC values were fit to a 4-parameter IC50 equation and the IC50 value reported.

KRas^WT = target: T2, KRas^WT (Homo sapiens, UniProt P01116); assay: as above
T2 construct: […]; biotin (biotinylated); purchased Accelegan Inc
Procedure: as §1

KRas^G13D = KRas^G13D (Homo sapiens, UniProt P01116, G13D); assay: biochemical
Procedure: as §1

KRas^G12A = target: T3, KRas^G12A (Homo sapiens, UniProt P01116, G12A); assay: KRas binding assay (TR-FRET displacement of Cy5 labelled tracer)
T3 construct: […]; biotin (biotinylated); purchased Accelegan Inc
Procedure: as §1

KRas^G12C = KRas^G12C (Homo sapiens, UniProt P01116, G12C); assay: biochemical
Procedure: as §1

KRas^Q61H = KRas^Q61H (Homo sapiens, UniProt P01116, Q61H); assay: biochemical
Procedure: as §1

KRas^G12V = target: T4, KRas^G12V (Homo sapiens, UniProt P01116, G12V); assay: KRas binding assay (TR-FRET displacement of Cy5 labelled tracer)
T4 construct: […]; biotin (biotinylated); purchased Accelegan Inc
Procedure: as §1

KRas^G12D = target: T5, KRas^G12D (Homo sapiens, UniProt P01116, G12D); assay: as above
T5 construct: […]; biotin (biotinylated); purchased Accelegan Inc
Procedure: as §1

KRas^G12R = target: T6, KRas^G12R (Homo sapiens, UniProt P01116, G12R); assay: as above
T6 construct: […]; biotin (biotinylated); purchased Accelegan Inc
T6 sequence (P01116 1-169 isoform P01116-2 G12R): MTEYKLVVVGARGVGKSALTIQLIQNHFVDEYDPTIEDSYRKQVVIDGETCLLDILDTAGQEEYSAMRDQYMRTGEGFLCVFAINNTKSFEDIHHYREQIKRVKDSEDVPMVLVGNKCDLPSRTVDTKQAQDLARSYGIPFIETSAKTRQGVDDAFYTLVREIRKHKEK
Procedure: as §1

T2 sequence (P01116 1-169 isoform P01116-2): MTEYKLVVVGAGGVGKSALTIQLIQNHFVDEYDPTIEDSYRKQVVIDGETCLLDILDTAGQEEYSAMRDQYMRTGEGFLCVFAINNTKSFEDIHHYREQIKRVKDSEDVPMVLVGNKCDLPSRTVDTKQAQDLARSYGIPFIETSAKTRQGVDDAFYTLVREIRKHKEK
KRas^G12C, sequence (P01116 1-169 isoform P01116-2 G12C): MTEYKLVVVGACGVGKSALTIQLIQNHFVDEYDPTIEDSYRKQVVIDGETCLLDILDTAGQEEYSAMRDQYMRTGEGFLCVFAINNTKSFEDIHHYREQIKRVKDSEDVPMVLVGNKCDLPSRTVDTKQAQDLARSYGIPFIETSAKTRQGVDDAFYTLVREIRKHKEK
T4 sequence (P01116 1-169 isoform P01116-2 G12V): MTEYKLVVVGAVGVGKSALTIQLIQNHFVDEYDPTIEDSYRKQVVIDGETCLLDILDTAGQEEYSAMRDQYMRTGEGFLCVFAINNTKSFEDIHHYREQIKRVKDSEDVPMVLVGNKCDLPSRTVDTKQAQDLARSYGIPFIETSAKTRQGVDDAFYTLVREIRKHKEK
T5 sequence (P01116 1-169 isoform P01116-2 G12D): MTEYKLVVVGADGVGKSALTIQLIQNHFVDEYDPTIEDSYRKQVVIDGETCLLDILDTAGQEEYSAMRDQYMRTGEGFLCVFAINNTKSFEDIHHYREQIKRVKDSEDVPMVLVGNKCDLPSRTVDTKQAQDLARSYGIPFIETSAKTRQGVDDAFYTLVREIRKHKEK
T1 sequence (P01116 1-169 isoform P01116-2 G12S): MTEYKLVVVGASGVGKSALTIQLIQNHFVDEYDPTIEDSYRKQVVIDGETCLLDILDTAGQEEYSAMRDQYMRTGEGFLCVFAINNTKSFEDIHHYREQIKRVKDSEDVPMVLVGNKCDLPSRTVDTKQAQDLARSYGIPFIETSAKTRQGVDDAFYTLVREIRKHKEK
KRas^Q61H, sequence (P01116 1-169 isoform P01116-2 Q61H): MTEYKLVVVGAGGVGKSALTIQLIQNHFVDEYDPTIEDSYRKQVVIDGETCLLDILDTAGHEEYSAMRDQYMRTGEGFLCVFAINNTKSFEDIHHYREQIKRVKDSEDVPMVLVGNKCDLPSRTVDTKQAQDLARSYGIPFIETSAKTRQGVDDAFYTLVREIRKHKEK
KRas^G13D, sequence (P01116 1-169 isoform P01116-2 G13D): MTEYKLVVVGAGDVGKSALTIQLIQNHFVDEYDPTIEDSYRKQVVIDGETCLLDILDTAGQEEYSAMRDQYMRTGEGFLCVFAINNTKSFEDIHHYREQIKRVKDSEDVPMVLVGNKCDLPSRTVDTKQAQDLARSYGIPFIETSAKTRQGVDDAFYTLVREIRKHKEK
T3 sequence (P01116 1-169 isoform P01116-2 G12A): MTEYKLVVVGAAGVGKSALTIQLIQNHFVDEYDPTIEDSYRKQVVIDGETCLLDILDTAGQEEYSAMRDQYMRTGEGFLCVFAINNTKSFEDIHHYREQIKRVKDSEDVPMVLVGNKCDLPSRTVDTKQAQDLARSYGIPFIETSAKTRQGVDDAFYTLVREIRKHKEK

Row | Compound | IC50 (KRas^G12S) | IC50 (KRas^WT) | IC50 (KRas^G13D) | IC50 (KRas^G12A) | IC50 (KRas^G12C) | IC50 (KRas^Q61H) | IC50 (KRas^G12V) | IC50 (KRas^G12D) | IC50 (KRas^G12R)
1 | CCc1cccc2cccc(N3CCc4c(nc(OCC56CCCN5CCC6)nc4N4CCCC(c5ncn[nH]5)C4)C3)c12 (stereo not drawn) [Example 53, 4-(3-(1H-1,2,4-triazol-5-yl)piperidin-1-yl)-7-(8-ethylnaphthalen-1-yl)-2-((hexahydro-1H-pyrrolizin-7a-yl)methoxy)-5,6,7,8-tetrahydropyrido[3,4-d]pyrimidine] | 854 nM | 894 nM | 1180 nM | 548 nM | 741 nM | 1150 nM | 937 nM | 2720 nM | 397 nM
2 | CCc1cccc2cccc(N3CCc4c(nc(OCC56CCCN5CCC6)nc4N4CCOCC(O)C4)C3)c12 (stereo not drawn) [Example 6, 4-(7-(8-ethylnaphthalen-1-yl)-2-((tetrahydro-1H-pyrrolizin-7a(5H)-yl)methoxy)-5,6,7,8-tetrahydropyrido[3,4-d]pyrimidin-4-yl)-1,4-oxazepan-6-ol] | 100 nM | 104 nM | 159 nM | 86 nM | 88 nM | 132 nM | 118 nM | 310 nM | 71 nM
3 | O=C1NC(=O)C2CN(c3nc(OCC45CCCN4CCC5)nc4c3CCN(c3cccc5cccc(Br)c35)C4)CC12 (stereo not drawn) [Example 78, 5-(7-(8-bromonaphthalen-1-yl)-2-((hexahydro-1H-pyrrolizin-7a-yl)methoxy)-5,6,7,8-tetrahydropyrido[3,4-d]pyrimidin-4-yl)tetrahydropyrrolo[3,4-c]pyrrole-1,3(2H,3aH)-dione] | 22 nM | 73 nM | 67 nM | 59 nM | 80 nM | 112 nM | 41 nM | 30 nM | 81 nM
4 | CCc1cccc2cccc(N3CCc4c(nc(OCC56CCCN5CCC6)nc4N4CCCC(c5nc(N)n(C)n5)C4)C3)c12 (stereo not drawn) [Example 84, 3-(1-(7-(8-ethylnaphthalen-1-yl)-2-((tetrahydro-1H-pyrrolizin-7a(5H)-yl)methoxy)-5,6,7,8-tetrahydropyrido[3,4-d]pyrimidin-4-yl)piperidin-3-yl)-1-methyl-1H-1,2,4-triazol-5-amine] | 351 nM | 838 nM | 696 nM | 215 nM | 161 nM | 734 nM | 291 nM | 2110 nM | 104 nM
5 | CCc1cccc2cccc(N3CCc4c(nc(OCC56CCCN5CCC6)nc4N4CCC(CO)C(O)C4)C3)c12 (stereo not drawn) [Example 86, 1-(7-(8-ethylnaphthalen-1-yl)-2-((tetrahydro-1H-pyrrolizin-7a(5H)-yl)methoxy)-5,6,7,8-tetrahydropyrido[3,4-d]pyrimidin-4-yl)-4-(hydroxymethyl)piperidin-3-ol] | 304 nM | 158 nM | 151 nM | 225 nM | 576 nM | 194 nM | 498 nM | 1320 nM | 465 nM
6 | CCc1cccc2cccc(N3CCc4c(nc(OCC56CCCN5CCC6)nc4NC[C@H]4CCC(=O)N4)C3)c12 [Example 148, (R)-5-(((7-(8-ethylnaphthalen-1-yl)-2-((tetrahydro-1H-pyrrolizin-7a(5H)-yl)methoxy)-5,6,7,8-tetrahydropyrido[3,4-d]pyrimidin-4-yl)amino)methyl)pyrrolidin-2-one] | 2900 nM | 7310 nM | 7150 nM | 3240 nM | 3070 nM | 7800 nM | 1350 nM | 7620 nM | 4350 nM
7 | CCc1cccc2cccc(N3CCc4c(nc(OCC56CCCN5CCC6)nc4N4CCOCC(n5cncn5)C4)C3)c12 (stereo not drawn) [Example 88, 4-(7-(8-ethylnaphthalen-1-yl)-2-((tetrahydro-1H-pyrrolizin-7a(5H)-yl)methoxy)-5,6,7,8-tetrahydropyrido[3,4-d]pyrimidin-4-yl)-6-(1H-1,2,4-triazol-1-yl)-1,4-oxazepane] | 505 nM | 215 nM | 176 nM | 475 nM | 482 nM | 228 nM | 403 nM | 1110 nM | 470 nM
8 | CCc1cccc2cccc(N3CCc4c(nc(OCC56CCCN5CCC6)nc4N4CCCC(c5ncc(C)s5)C4)C3)c12 (stereo not drawn) [Example 135, 2-(1-(7-(8-ethylnaphthalen-1-yl)-2-((tetrahydro-1H-pyrrolizin-7a(5H)-yl)methoxy)-5,6,7,8-tetrahydropyrido[3,4-d]pyrimidin-4-yl)piperidin-3-yl)-5-methylthiazole] | 2420 nM | 2830 nM | 2810 nM | 2670 nM | 1930 nM | 2850 nM | 2850 nM | 4100 nM | 850 nM
9 | CCc1cccc2cccc(N3CCc4c(nc(OCC56CCCN5CCC6)nc4N4CCOC5(CCSC5)C4)C3)c12 (stereo not drawn) [Example 130, 9-(7-(8-ethylnaphthalen-1-yl)-2-((tetrahydro-1H-pyrrolizin-7a(5H)-yl)methoxy)-5,6,7,8-tetrahydropyrido[3,4-d]pyrimidin-4-yl)-6-oxa-2-thia-9-azaspiro[4.5]decane] | 1300 nM | 772 nM | 1160 nM | 1460 nM | 1100 nM | 950 nM | 1260 nM | 5070 nM | 1230 nM
10 | CCc1cccc2cccc(N3CCc4c(nc(OCC56CCCN5CCC6)nc4N4CC5CC(O)CC4C5)C3)c12 (stereo not drawn) [Example 41, 6-(7-(8-ethylnaphthalen-1-yl)-2-((hexahydro-1H-pyrrolizin-7a-yl)methoxy)-5,6,7,8-tetrahydropyrido[3,4-d]pyrimidin-4-yl)-6-azabicyclo[3.2.1]octan-3-ol] | 255 nM | 543 nM | 583 nM | 452 nM | 520 nM | 685 nM | 206 nM | 1300 nM | 245 nM
11 | CCc1cccc2cccc(N3CCc4c(nc(OCC56CCCN5CCC6)nc4N4C[C@@H](C)C[C@H](O)C4)C3)c12 [Example 97, (3S,5S)-1-(7-(8-ethylnaphthalen-1-yl)-2-((tetrahydro-1H-pyrrolizin-7a(5H)-yl)methoxy)-5,6,7,8-tetrahydropyrido[3,4-d]pyrimidin-4-yl)-5-methylpiperidin-3-ol] | 520 nM | 321 nM | 336 nM | 484 nM | 558 nM | 400 nM | 567 nM | 1160 nM | 499 nM
12 | CCc1cccc2cccc(N3CCc4c(nc(OCC56CCCN5CCC6)nc4N4CCCC(c5c[nH]cn5)C4)C3)c12 (stereo not drawn) [Example 116, 4-(3-(1H-imidazol-4-yl)piperidin-1-yl)-7-(8-ethylnaphthalen-1-yl)-2-((tetrahydro-1H-pyrrolizin-7a(5H)-yl)methoxy)-5,6,7,8-tetrahydropyrido[3,4-d]pyrimidine] | 1490 nM | 2100 nM | 1670 nM | 1160 nM | 1110 nM | 1640 nM | 1790 nM | 3300 nM | 462 nM
